ChEMBL document CHEMBL4251653, “In vivo potent BM635 analogue with improved drug-like properties” (Eur J Med Chem, 2018)
≈ marks a conversion by molar mass, not a printed value.

Experiments:
[1] = system: Mycobacterium tuberculosis; assay: microbe, parasite or virus in culture; details: 144 h
Description: Antitubercular activity against Mycobacterium tuberculosis after 6 days by resazurin-based fluorescence assay

[2] = Cytotoxicity against human HepG2 cells incubated for 48 hrs by Cell-titer Glo assay; format: cell-based; details: read-out: TC50
[3] = system: Mycobacterium tuberculosis; assay: microbe, parasite or virus in culture; details: H37Rv, THP-1, 96 h
Description: Antitubercular activity against Mycobacterium tuberculosis H37Rv infected in human THP1 macrophages incubated for 4 days by luciferase reporter gene assay

[4] = in vitro; details: human, HepG2 cells
Description: Selectivity index, ratio of TC50 for human HepG2 cells to MIC for Mycobacterium tuberculosis

[5] = system: HepG2; assay: Cytotoxicity against human HepG2 cells assessed as compound concentration causing changes in nuclear morphology by Cell Health assay; format: cell-based
[6] = system: HepG2; assay: Cytotoxicity against human HepG2 cells assessed as compound concentration causing changes in membrane permeability by Cell Health assay; format: cell-based
[7] = system: HepG2; assay: Cytotoxicity against human HepG2 cells assessed as compound concentration causing changes in mitochondrial potential by Cell Health assay; format: cell-based
[8] = Lipophilicity, log D of the compound at pH 7.4 by UV-HPLC method; format: physicochemical; details: buffer, read-out: logD
[9] = Permeability of the compound by artificial membrane permeability assay; format: ADME; details: PAMPA; read-out: permeability
[10] = target: Albumin (Homo sapiens, UniProt P02768); assay: Binding affinity to human serum albumin; format: ADME; details: isolated protein
Albumin, sequence (P02768 whole entry): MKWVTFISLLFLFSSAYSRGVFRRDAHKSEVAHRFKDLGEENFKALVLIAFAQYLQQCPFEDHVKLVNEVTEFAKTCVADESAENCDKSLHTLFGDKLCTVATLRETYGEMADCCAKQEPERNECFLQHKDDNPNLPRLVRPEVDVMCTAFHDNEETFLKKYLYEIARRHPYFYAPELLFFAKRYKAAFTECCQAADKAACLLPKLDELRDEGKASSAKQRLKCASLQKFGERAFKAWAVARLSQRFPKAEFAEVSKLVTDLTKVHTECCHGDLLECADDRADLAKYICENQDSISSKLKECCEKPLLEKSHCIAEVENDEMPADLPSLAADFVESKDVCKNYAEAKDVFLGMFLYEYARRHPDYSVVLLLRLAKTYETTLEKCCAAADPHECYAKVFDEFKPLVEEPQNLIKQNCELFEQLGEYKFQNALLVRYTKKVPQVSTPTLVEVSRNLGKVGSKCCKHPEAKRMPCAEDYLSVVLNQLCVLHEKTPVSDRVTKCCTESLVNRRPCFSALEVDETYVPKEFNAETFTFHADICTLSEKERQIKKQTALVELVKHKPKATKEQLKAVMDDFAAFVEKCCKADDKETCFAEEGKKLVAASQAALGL

[11] = Kinetic solubility in pH 7.4 phosphate buffered saline incubated for 1 hr by chemiluminescent nitrogen detection method; format: physicochemical; details: read-out: Kinetic_solubility
[12] = target: Voltage-gated inwardly rectifying potassium channel KCNH2 (Homo sapiens, UniProt Q12809); assay: Inhibition of human ERG by [3H]dofetilide binding displacement assay
Voltage-gated inwardly rectifying potassium channel KCNH2, sequence (Q12809 whole entry): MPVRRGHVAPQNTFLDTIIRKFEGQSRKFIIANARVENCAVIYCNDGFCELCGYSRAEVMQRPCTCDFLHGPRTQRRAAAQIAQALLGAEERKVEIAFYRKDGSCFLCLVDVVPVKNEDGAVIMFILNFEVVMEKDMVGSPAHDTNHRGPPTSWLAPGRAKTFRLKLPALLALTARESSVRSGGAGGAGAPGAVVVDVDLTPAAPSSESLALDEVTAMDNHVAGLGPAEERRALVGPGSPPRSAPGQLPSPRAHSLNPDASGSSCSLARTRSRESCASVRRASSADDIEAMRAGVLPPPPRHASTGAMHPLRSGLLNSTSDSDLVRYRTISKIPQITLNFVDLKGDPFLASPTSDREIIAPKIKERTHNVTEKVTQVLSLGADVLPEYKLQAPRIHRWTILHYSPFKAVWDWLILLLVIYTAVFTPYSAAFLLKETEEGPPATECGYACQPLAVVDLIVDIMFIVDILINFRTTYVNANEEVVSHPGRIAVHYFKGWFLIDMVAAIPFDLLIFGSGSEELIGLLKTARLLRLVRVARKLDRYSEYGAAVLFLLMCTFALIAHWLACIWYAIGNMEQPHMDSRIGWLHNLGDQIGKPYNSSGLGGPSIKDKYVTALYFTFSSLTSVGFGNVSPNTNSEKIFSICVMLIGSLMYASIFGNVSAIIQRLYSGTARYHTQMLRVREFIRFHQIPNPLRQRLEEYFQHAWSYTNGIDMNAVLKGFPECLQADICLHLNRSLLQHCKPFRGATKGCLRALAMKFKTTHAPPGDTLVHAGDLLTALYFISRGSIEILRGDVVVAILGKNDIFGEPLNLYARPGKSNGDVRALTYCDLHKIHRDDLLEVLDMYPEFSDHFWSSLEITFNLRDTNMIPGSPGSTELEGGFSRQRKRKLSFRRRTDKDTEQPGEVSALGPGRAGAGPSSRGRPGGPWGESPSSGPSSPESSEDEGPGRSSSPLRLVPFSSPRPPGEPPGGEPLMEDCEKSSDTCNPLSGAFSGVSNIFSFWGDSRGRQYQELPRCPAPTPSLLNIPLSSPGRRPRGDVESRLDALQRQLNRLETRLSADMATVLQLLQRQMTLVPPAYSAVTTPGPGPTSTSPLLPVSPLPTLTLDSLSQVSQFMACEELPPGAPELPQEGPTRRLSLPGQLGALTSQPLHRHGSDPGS

[13] = Solubility of the compound in FaSSIF at pH 6.5 incubated for 4 hrs by UPLC-MS method; format: physicochemical

| SMILES | MIC [1] [µM] | CC50 at 48 h [2] [µM] | IC50 [3] [µM] | selectivity ratio [4] | also measured |
| --- | --- | --- | --- | --- | --- |
| Cc1c(CN2CCOCC2)cc(-c2ccc(Cl)cc2)n1C(C)C | 2.5 (≈ 0.832 µg/mL) | – | – | – | – |
| Cc1c(CN2CCOCC2)cc(-c2ccc(C(C)C)cc2)n1C1CCN(C)CC1 | > 5 | 20 | > 10 | – | – |
| Cc1c(CN2CCOCC2)cc(-c2ccc(C(F)(F)F)cc2)n1C1CCCCC1 | 1.25 (≈ 0.508 µg/mL) | > 100 | – | > 167 | – |
| COCCn1c(-c2ccc(C(C)C)cc2)cc(CN2CCOCC2)c1C | 1.3 (≈ 0.463 µg/mL) | 50.1 | 1.32 | 39 | – |
| Cc1c(CN2CCOCC2)cc(-c2ccc(Cl)nc2)n1-c1ccc(F)cc1 | > 5 | 80 | > 10 | – | – |
| Cc1c(CN2CCOCC2)cc(-c2ccc(C(C)C)cc2)n1-c1cccc(C(=O)O)c1 | 40 (≈ 16.7 µg/mL) | > 100 | – | – | – |
| Cc1c(CN2CCOCC2)cc(-c2ccc(C(C)C)cc2)n1C1COC1 | 2.5 (≈ 0.886 µg/mL) | 80 | 2.5 | – | Activity [5]: 80 µM; Activity [6]: 80 µM; Activity [7]: 100 µM |
| Cc1c(CN2CCOCC2)cc(-c2ccc(C(C)C)cc2)n1-c1ccc(F)cn1 | 0.6 (≈ 0.236 µg/mL) | 20 | 0.6 | 33 | Activity [5]: 50 µM; Activity [6]: 63 µM; Activity [7]: 80 µM; logD [8]: 6.85; Papp [9]: 64 ×10⁻⁶ cm/s; Activity [10]: 94.13%; solubility kinetic at 1 h [11]: 276 µM (≈ 109 µg/mL); IC50 [12]: 8 µM |
| Cc1c(CN2CCOCC2)cc(-c2ccc(C(C)C)cc2)n1-c1ncccn1 | 40 (≈ 15.1 µg/mL) | > 100 | – | – | – |
| Cc1c(CN2CCOCC2)cc(-c2ccc(C(C)C)cc2)n1CCC(=O)O | > 40 | > 100 | – | – | – |
| Cc1c(CN2CCOCC2)cc(-c2ccc(C(C)C)cc2)n1C1CCC1 | 0.08 (≈ 0.0282 µg/mL) | 20 | 0.08 | 250 | Activity [5]: 25 µM; Activity [6]: 25 µM; Activity [7]: 32 µM; logD [8]: 8.13; Papp [9]: 55 ×10⁻⁶ cm/s; Activity [10]: 98.12%; solubility kinetic at 1 h [11]: 71 µM (≈ 25 µg/mL); IC50 [12]: 8 µM |
| Cc1c(CN2CCOCC2)cc(-c2ccc(C(C)C)cc2)n1C1CC1 | 0.3 (≈ 0.102 µg/mL) | 20 | 0.2 | 67 | Activity [5]: 40 µM; Activity [6]: 40 µM; Activity [7]: 50 µM; logD [8]: 7.21; Activity [10]: 96.49%; solubility kinetic at 1 h [11]: 181 µM (≈ 61.3 µg/mL); solubility at 4 h [13]: 511 µg/mL (≈ 1510 µM); IC50 [12]: 8 µM |
| Cc1c(CN2CCOCC2)cc(-c2ccc(C(C)C)cc2)n1-c1ccc(N(C)C)cc1 | 1.25 (≈ 0.522 µg/mL) | 16 | 2.5 | 13 | – |
| Cc1c(CN2CCOCC2)cc(-c2ccc(C(C)C)cc2)n1[C@@H]1CCCN(C)C1 | > 40 | 25 | – | – | – |
| Cc1c(CN2CCOCC2)cc(-c2ccc(C(C)C)cc2)n1CC1CCOCC1 | > 5 | > 100 | 5.28 | – | – |
| Cc1c(CN2CCOCC2)cc(-c2ccc(C(F)(F)F)cc2)n1-c1ccc(F)cc1 | 0.6 (≈ 0.251 µg/mL) | > 100 | – | 167 | logD [8]: 7.67; Papp [9]: 15 ×10⁻⁶ cm/s; Activity [10]: 98.33%; solubility kinetic at 1 h [11]: < 1 µM; IC50 [12]: > 50 µM |
| Cc1c(CN2CCOCC2)cc(C2CCCCC2)n1-c1ccc(F)cc1 | > 5 | 50 | > 10 | – | – |
| Cc1c(CN2CCOCC2)cc(-c2ccc(C(F)(F)F)cc2)n1C(C)C | 2.5 (≈ 0.916 µg/mL) | 20 | – | – | – |
| Cc1c(CN2CCOCC2)cc(-c2ccc(C(C)C)cc2)n1C1CCN(C(=O)OC(C)(C)C)CC1 | > 5 | – | > 10 | – | – |
| Cc1c(CN2CCOCC2)cc(-c2ccc(C(C)C)cc2)n1C1CCCN(C(=O)OC(C)(C)C)C1 (single isomer, unassigned) | 30 (≈ 14.5 µg/mL) | 16 | – | – | – |
| NNC(=O)c1ccncc1 [ISONIAZID] | 1.8 (≈ 0.247 µg/mL) | – | – | – | – |
